Each structure is given as a SMILES string.

The record followed here is patent US20260285855A1, “HETEROARYL DERIVATIVES AS DDRS INHIBITORS” (CHIESI FARMACEUTICI S.P.A., priority 2023, published 2026).

In one experiment the target is T1, DDR1 (Homo sapiens, UniProt Q08345).
T1 construct: purchased Carna Biosciences
Put plainly: LanthaScreen Europium Kinase Binding assay, DDR1. Conditions: 5 nM DDR1, 20 nM Kinase Tracer 178, 1 h at rt; Ki from IC50 by Cheng-Prusoff; read-out: Ki DDR1. The method, then:
(§1) DDR1 and DDR2 binding assays were performed using Life Technologies LanthaScreen™ Europium Kinase Binding assay. […] IC50 values were determined in GraphPad Prism 7.0 software, using 4 parameter model: log (inhibitor) vs. response. IC50 values were converted in Ki using the Cheng-Prusoff equation (Ki-IC50/(1+ [Tracer]/Kd).
In general terms: In TR-FRET formats the signal depends on donor and acceptor labels being close together.

A further experiment deals with T2, DDR2 (Homo sapiens, UniProt Q16832).
T2 construct: purchased Life Technologies
T2 sequence (Q16832 22-855): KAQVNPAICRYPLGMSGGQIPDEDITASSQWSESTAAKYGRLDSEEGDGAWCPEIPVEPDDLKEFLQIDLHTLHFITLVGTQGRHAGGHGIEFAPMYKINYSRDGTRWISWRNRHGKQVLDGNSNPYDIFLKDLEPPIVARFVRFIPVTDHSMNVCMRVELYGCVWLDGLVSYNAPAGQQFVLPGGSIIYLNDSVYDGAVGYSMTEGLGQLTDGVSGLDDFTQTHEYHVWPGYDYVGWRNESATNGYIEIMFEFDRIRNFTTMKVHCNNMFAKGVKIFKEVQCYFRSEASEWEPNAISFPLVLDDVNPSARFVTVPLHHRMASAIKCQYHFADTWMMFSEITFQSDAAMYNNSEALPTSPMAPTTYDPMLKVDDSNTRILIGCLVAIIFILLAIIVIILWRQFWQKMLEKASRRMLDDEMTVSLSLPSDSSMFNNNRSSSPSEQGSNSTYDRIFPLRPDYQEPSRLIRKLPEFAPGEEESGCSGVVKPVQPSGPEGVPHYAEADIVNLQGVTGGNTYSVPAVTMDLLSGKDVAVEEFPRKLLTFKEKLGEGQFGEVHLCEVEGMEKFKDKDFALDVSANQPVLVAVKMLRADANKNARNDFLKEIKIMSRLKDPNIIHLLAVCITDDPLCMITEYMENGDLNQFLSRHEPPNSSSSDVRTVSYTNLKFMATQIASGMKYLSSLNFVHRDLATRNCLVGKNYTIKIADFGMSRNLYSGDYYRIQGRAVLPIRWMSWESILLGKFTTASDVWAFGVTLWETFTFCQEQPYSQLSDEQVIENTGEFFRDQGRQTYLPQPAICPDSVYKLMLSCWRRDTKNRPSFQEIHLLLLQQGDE
Put plainly: LanthaScreen Europium Kinase Binding assay, DDR2. To be noted: 5 nM DDR2, 10 nM Kinase Tracer 178, 1 h at rt; Ki from IC50 by Cheng-Prusoff; read-out: Ki DDR2. The method, then:
as §1

T1 sequence (Q08345 19-913): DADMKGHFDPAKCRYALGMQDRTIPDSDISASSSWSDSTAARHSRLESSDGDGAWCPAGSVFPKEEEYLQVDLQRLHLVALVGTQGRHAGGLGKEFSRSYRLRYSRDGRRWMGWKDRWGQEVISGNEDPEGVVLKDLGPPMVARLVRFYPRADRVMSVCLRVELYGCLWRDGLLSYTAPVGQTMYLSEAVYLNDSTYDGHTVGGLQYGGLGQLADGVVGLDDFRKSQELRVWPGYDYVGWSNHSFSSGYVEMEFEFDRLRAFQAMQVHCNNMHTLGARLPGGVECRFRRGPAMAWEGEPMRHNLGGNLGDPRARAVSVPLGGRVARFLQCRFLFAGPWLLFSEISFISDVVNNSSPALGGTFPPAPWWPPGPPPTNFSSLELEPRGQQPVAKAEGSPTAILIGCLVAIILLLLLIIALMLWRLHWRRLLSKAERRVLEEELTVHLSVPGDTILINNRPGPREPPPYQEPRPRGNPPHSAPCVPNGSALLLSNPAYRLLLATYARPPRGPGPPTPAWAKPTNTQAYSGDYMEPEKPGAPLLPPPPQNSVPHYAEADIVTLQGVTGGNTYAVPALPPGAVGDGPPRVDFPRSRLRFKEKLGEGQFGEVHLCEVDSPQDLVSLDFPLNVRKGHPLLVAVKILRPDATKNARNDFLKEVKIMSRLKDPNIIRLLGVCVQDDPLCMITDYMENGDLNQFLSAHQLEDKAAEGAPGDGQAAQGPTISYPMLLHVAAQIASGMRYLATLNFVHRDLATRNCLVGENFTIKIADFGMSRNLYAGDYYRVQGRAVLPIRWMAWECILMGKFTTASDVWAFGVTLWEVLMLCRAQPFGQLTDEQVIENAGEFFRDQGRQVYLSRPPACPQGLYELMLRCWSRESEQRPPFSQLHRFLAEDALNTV

As usually defined, the Ki is the dissociation constant of the complex between target and ligand, obtained from inhibition or displacement. With `CN(C(=O)Nc1cc(Cl)cc(C(F)(F)F)c1)C1CC2(C1)CN(C(=O)c1ncnc3[nH]ccc13)C2` [Example 286, 1-(2-(7H-pyrrolo[2,3-d]pyrimidine-4-carbonyl)-2-azaspiro[3.3]heptan-6-yl)-3-(3-chloro-5-(trifluoromethyl)phenyl)-1-methylurea], the Ki at DDR1 was less than 5 nM; on DDR2, 5 to 25 nM.
Regarding `COc1cc(NC(=O)N(C)C2CC3(C2)CN(C(=O)c2cnn4ccn(C)c24)C3)cc(C(F)(F)F)c1` [Example 287, 3-(3-methoxy-5-(trifluoromethyl)phenyl)-1-methyl-1-(2-(1-methyl-1H-imidazo[1,2-b]pyrazole-7-carbonyl)-2-azaspiro[3.3]heptan-6-yl)urea], the Ki at DDR1 is less than 5 nM; at DDR2 it was 5 to 25 nM.
On to `CCOc1ccc(C(F)(F)F)cc1NC(=O)N(C)C1CC2(C1)CN(C(=O)c1cnn3ccn(C)c13)C2` [Example 288, 3-(2-ethoxy-5-(trifluoromethyl)phenyl)-1-methyl-1-(2-(1-methyl-1H-imidazo[1,2-b]pyrazole-7-carbonyl)-2-azaspiro[3.3]heptan-6-yl)urea], for which the Ki on DDR1 is less than 5 nM; on DDR2, 5 to 25 nM.
`Cc1nc(NC(=O)N(C)C2CC3(C2)CN(C(=O)c2cnn4ccsc24)C3)cc(C(F)(F)F)n1` [Example 289, 1-methyl-3-(2-methyl-6-(trifluoromethyl)pyrimidin-4-yl)-1-(2-(pyrazolo[5,1-b]thiazole-7-carbonyl)-2-azaspiro[3.3]heptan-6-yl)urea]: the inhibition constant (Ki) was less than 5 nM at DDR1 and 5 to 25 nM on DDR2.
Consider `Cc1nc(NC(=O)N(C)C2CC3(C2)CN(C(=O)c2cnn4ccn(C)c24)C3)cc(C(F)(F)F)n1` [Example 290, 1-methyl-1-(2-(1-methyl-1H-imidazo[1,2-b]pyrazole-7-carbonyl)-2-azaspiro[3.3]heptan-6-yl)-3-(2-methyl-6-(trifluoromethyl)pyrimidin-4-yl)urea], for which the Ki was in the range of 5 to 25 nM at DDR1 and 25 to 100 nM at DDR2.
In the case of `CN(C(=O)Nc1cc(C(F)(F)F)cs1)C1CC2(C1)CN(C(=O)c1cnn3ccn(C)c13)C2` [Example 291, 1-methyl-1-(2-(1-methyl-1H-imidazo[1,2-b]pyrazole-7-carbonyl)-2-azaspiro[3.3]heptan-6-yl)-3-(4-(trifluoromethyl)thiophen-2-yl)urea], the inhibition constant (Ki) on DDR1 was less than 5 nM; on DDR2 it was 5 to 25 nM.
Consider `O=C(Nc1cc(C(F)(F)F)ncn1)OC1CC2(C1)CN(C(=O)c1cnn3ccsc13)C2` [Example 292, 2-(pyrazolo[5,1-b]thiazole-7-carbonyl)-2-azaspiro[3.3]heptan-6-yl(6-(trifluoromethyl)pyrimidin-4-yl)carbamate], for which the Ki is less than 5 nM on DDR1 and 5 to 25 nM at DDR2.
On to `CC(C)(c1cc(NC(=O)OC2CC3(C2)CN(C(=O)c2cnn4ccsc24)C3)no1)C(F)(F)F` [Example 293, 2-(pyrazolo[5,1-b]thiazole-7-carbonyl)-2-azaspiro[3.3]heptan-6-yl(5-(1,1,1-trifluoro-2-methylpropan-2-yl)isoxazol-3-yl)carbamate], for which the Ki on DDR1 and on DDR2 was less than 5 nM in each case.
For `Cn1ccn2ncc(C(=O)N3CC4(CC(OC(=O)Nc5cc(OC(F)(F)F)ccn5)C4)C3)c12` [Example 294, 2-(1-methyl-1H-imidazo[1,2-b]pyrazole-7-carbonyl)-2-azaspiro[3.3]heptan-6-yl(4-(trifluoromethoxy)pyridin-2-yl)carbamate], the inhibitory constant (Ki) on DDR1 and on DDR2 was less than 5 nM throughout.
Consider `Cc1ccc(OC(F)(F)F)cc1NC(=O)OC1CC2(C1)CN(C(=O)c1cnn3ccn(C)c13)C2` [Example 295, 2-(1-methyl-1H-imidazo[1,2-b]pyrazole-7-carbonyl)-2-azaspiro[3.3]heptan-6-yl(2-methyl-5-(trifluoromethoxy)phenyl)carba-mate], for which the Ki at DDR1 and at DDR2 was less than 5 nM each time.
Turning to `Cn1ccn2ncc(C(=O)N3CC4(CC(OC(=O)Nc5cc(C(F)(F)F)ccn5)C4)C3)c12` [Example 296, 2-(1-methyl-1H-imidazo[1,2-b]pyrazole-7-carbonyl)-2-azaspiro[3.3]heptan-6-yl(4-(trifluoromethyl)pyridin-2-yl)carbamate], the values for the Ki on DDR1 and at DDR2 were less than 5 nM and 5 to 25 nM, respectively.
In the case of `Cn1ccn2ncc(C(=O)N3CC4(CC(OC(=O)Nc5cc(C(F)(F)F)ncn5)C4)C3)c12` [Example 297, 2-(1-methyl-1H-imidazo[1,2-b]pyrazole-7-carbonyl)-2-azaspiro[3.3]heptan-6-yl(6-(trifluoromethyl)pyrimidin-4-yl)carbamate], the results for the Ki at DDR1 and at DDR2 were less than 5 nM and 5 to 25 nM, respectively.
Regarding `CCOc1ccc(C(F)(F)F)cc1NC(=O)NC1CC2(C1)CN(C(=O)c1cnn3ccn(C)c13)C2` [Example 298, 1-(2-ethoxy-5-(trifluoromethyl)phenyl)-3-(2-(1-methyl-1H-imidazo[1,2-b]pyrazole-7-carbonyl)-2-azaspiro[3.3]heptan-6-yl)urea], the Ki at DDR1 and on DDR2 was less than 5 nM in each case.
With `Cn1ccn2ncc(C(=O)N3CC4(CC(OC(=O)Nc5cncc(OC(F)(F)F)c5)C4)C3)c12` [Example 299, 2-(1-methyl-1H-imidazo[1,2-b]pyrazole-7-carbonyl)-2-azaspiro[3.3]heptan-6-yl(5-(trifluoromethoxy)pyridin-3-yl)carbamate], the inhibition constant (Ki) at DDR1 and at DDR2 was less than 5 nM throughout.
Turning to `Cc1cc(C(F)(F)F)cc(NC(=O)N(C)C2CC3(C2)CN(C(=O)c2cnn4ccn(C)c24)C3)n1` [Example 300, 1-methyl-1-(2-(1-methyl-1H-imidazo[1,2-b]pyrazole-7-carbonyl)-2-azaspiro[3.3]heptan-6-yl)-3-(6-methyl-4-(trifluoromethyl)pyridin-2-yl)urea], the values for the inhibition constant (Ki) on DDR1 and at DDR2 were less than 5 nM and 5 to 25 nM, respectively.
Regarding `[2H]C([2H])([2H])n1ccn2ncc(C(=O)N3CC4(CC(CC(=O)Nc5cc(OC(F)(F)F)ccn5)C4)C3)c12` [Example 301, 2-(2-(1-(methyl-d3)-1H-imidazo[1,2-b]pyrazole-7-carbonyl)-2-azaspiro[3.3]heptan-6-yl)-N-(4-(trifluoromethoxy)pyridin-2-yl)acetamide], the inhibitory constant (Ki) on DDR1 and at DDR2 was less than 5 nM each time.
Consider `O=C(CC1CC2(C1)CN(C(=O)c1cnn3ccn(C(F)F)c13)C2)Nc1cc(OC(F)(F)F)ccn1` [Example 302, 2-(2-(1-(difluoromethyl)-1H-imidazo[1,2-b]pyrazole-7-carbonyl)-2-azaspiro[3.3]heptan-6-yl)-N-(4-(trifluoromethoxy)pyridin-2-yl)acetamide], for which the Ki at DDR1 and at DDR2 was less than 5 nM throughout.
With `Cc1cnc(NC(=O)N(C)C2CC3(C2)CN(C(=O)c2cnn4ccn(C)c24)C3)cc1C(F)(F)F` [Example 303, 1-methyl-1-(2-(1-methyl-1H-imidazo[1,2-b]pyrazole-7-carbonyl)-2-azaspiro[3.3]heptan-6-yl)-3-(5-methyl-4-(trifluoromethyl)pyridin-2-yl)urea], the inhibition constant (Ki) is less than 5 nM at DDR1 and 5 to 25 nM at DDR2.
Regarding `O=C(Nc1cncc(C(F)(F)F)c1)NC1CC2(C1)CN(c1cnc3[nH]ncc3c1)C2` [Example 304, 1-(2-(1H-pyrazolo[3,4-b]pyridin-5-yl)-2-azaspiro[3.3]heptan-6-yl)-3-(5-(trifluoromethyl)pyridin-3-yl)urea], the inhibitory constant (Ki) at DDR1 was less than 5 nM; at DDR2, 5 to 25 nM.
For `CN(C(=O)Nc1cc(C(F)(F)C(F)(F)F)ccn1)C1CC2(C1)CN(C(=O)c1cnn3ccn(C)c13)C2` [Example 305, 1-methyl-1-(2-(1-methyl-1H-imidazo[1,2-b]pyrazole-7-carbonyl)-2-azaspiro[3.3]heptan-6-yl)-3-(4-(perfluoroethyl)pyridin-2-yl)urea] the same measures were less than 5 nM and 5 to 25 nM.
For `O=C(Nc1cc(C(F)(F)F)cnn1)NC1CC2(C1)CN(c1cnc3[nH]ncc3c1)C2` [Example 306, 1-(2-(1H-pyrazolo[3,4-b]pyridin-5-yl)-2-azaspiro[3.3]heptan-6-yl)-3-(5-(trifluoromethyl)pyridazin-3-yl)urea] the same measures were less than 5 nM and 5 to 25 nM.
On to `Cc1ccc(OC(F)(F)F)cc1NC(=O)NC1CC2(C1)CN(c1cnc3[nH]ncc3c1)C2` [Example 307, 1-(2-(1H-pyrazolo[3,4-b]pyridin-5-yl)-2-azaspiro[3.3]heptan-6-yl)-3-(2-methyl-5-(trifluoromethoxy)phenyl)urea], for which the values for the Ki at DDR1 and on DDR2 were 5 to 25 nM and 25 to 100 nM, respectively.
